Legend:
[1] = target: T1, CFTR-mediated chloride transport in human intestinal epithelial enteroid cells (Homo sapiens, UniProt P13569); experiment: Membrane potential dye, Enteroid Assay A; assay type: cell-based; details: for EC50: read-out: Ent. A EC50
In short: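 Membrane potential dye (20 μM methyl oxonol, with 30 μM CaCCinh-A01 and 30 μM Chicago Sky Blue) loaded 25 min at room temperature into ROCK-inhibitor-seeded human enteroid cells. Chloride-free stimulation buffer triggered transport, followed by 15 min fluorescence. % Activity relative to 3 μM/3 μM/300 nM triple-combination control.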

[2] = target: T1, CFTR-mediated chloride transport in human intestinal epithelial enteroid cells; experiment: Membrane potential dye, Enteroid Assay B; assay type: cell-based; details: for EC50: read-out: Ent. B EC50
Description: Base medium (ADF+++) consisted of Advanced DMEM/Ham's F12, 2 mM Glutamax, 10 mM HEPES, […] penicillin/streptomycin.
Bath 1 Buffer consisted of 1 mM MgCl2, 160 mM NaCl, 4.5 mM KCl, 10 mM HEPES, 10 mM Glucose, 2 mM CaCl2.
Chloride Free Buffer consisted of 1 mM Magnesium Gluconate, 2 mM Calcium Gluconate, 4.5 mM Potassium Gluconate, 160 mM Sodium Gluconate, 10 mM HEPES, 10 mM Glucose.
Bath1 Dye Solution consisted of Bath 1 Buffer, 0.04% Pluronic F127, 20 μM Methyl Oxonol, 30 μM CaCCinh-A01, 30 μM Chicago Sky Blue.
Chloride Free Dye Solution consisted of Chloride Free Buffer, 0.04% Pluronic F127, 20 μM Methyl Oxonol, 30 μM CaCCinh-A01, 30 μM Chicago Sky Blue.
3. Enteroid Cell Harvesting and Seeding
Cells were recovered in cell recovery solution, collected by centrifugation at 650 rpm for 5 min at 4° C., resuspended in TryPLE and incubated for 5 min at 37° C. Cells were then collected by centrifugation at 650 rpm for 5 min at 4° C. and resuspended in IEMM containing 10 μM ROCK inhibitor (RI).
5. Membrane Potential Dye, Enteroid Assay B
Briefly, cells were washed 5 times in Bath 1 Buffer. Bath 1 Dye Solution was added and the cells were incubated for 25 min at room temperature. Following dye incubation, cells were washed 3 times in Chloride Free Dye Solution. Chloride transport was initiated by addition of Chloride Free Dye Stimulation Solution and the fluorescence signal was read for 15 min.

[3] = enteroid cells incubated with test compound 18-24 hours, acute 10 μM forskolin and 300 nM N-[2,4-bis(1,1-dimethylethyl)-5-hydroxyphenyl]-1,4-dihydro-4-oxoquinoline-3-carboxamide
[4] = percentage of chloride transport of triple combination control (3 μM N-[(6-amino-2-pyridyl)sulfonyl]-6-(3-fluoro-5-isobutoxy-phenyl)-2-[(4S)-2,2,4-trimethylpyrrolidin-1-yl]pyridine-3-carboxamide based)
[5] = percentage of chloride transport of triple combination control (1 μM (14S)-8-[3-(2-{Dispiro[2.0.2.1]heptan-7-yl}ethoxy)-1H-pyrazol-1-yl]-... trione based)

T1 sequence (P13569 with tags, fused parts or gaps DEL508-508): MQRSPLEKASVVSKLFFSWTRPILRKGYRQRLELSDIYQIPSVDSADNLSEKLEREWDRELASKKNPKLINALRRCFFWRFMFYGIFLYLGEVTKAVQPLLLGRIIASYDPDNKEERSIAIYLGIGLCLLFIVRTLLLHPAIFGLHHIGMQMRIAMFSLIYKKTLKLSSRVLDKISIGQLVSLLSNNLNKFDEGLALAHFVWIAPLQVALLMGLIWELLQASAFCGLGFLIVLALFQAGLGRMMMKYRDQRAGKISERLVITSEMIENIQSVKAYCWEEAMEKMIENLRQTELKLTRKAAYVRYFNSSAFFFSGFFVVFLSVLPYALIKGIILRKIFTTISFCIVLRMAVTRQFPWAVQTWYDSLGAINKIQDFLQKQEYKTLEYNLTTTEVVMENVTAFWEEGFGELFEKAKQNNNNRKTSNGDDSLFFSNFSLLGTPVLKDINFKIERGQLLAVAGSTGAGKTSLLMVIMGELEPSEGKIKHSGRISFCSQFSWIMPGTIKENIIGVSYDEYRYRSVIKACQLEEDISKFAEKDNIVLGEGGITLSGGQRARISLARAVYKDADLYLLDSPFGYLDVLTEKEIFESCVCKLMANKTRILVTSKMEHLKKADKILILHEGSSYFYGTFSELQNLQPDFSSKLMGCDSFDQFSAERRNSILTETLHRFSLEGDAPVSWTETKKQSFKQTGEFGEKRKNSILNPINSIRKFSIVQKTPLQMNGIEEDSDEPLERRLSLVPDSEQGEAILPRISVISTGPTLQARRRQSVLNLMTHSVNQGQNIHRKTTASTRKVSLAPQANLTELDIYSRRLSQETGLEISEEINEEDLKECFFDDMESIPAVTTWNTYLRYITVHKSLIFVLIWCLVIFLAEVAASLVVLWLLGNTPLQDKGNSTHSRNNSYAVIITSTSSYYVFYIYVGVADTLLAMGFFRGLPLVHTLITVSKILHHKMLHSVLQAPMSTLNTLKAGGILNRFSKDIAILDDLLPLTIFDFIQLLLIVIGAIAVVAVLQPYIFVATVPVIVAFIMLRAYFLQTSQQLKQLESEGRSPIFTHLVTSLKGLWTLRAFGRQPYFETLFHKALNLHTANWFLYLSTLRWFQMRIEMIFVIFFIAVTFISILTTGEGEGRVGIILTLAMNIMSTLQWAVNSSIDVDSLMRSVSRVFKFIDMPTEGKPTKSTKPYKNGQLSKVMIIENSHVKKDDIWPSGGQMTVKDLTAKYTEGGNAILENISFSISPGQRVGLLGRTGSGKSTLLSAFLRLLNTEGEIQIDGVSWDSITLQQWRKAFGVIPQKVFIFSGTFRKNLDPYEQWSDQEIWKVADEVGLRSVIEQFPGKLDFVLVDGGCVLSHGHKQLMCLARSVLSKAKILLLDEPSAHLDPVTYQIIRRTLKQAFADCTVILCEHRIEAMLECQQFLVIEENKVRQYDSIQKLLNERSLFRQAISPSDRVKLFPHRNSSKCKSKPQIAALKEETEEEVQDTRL

Row | Structure (SMILES) | Ent. A Max Activity (%) ([1]; Enteroid Assay A) | EC50 ([1]; Enteroid Assay A) [nM] | Ent. B Max Activity (%) ([2]; Enteroid Assay B) | EC50 ([2]; Enteroid Assay B) [nM] | EC50 [1, 3] [nM] | Ent. A Max Activity (%) [1, 4] | EC50 [2, 3] [nM] | Ent. B Max Activity (%) [2, 5]
1 | Cc1cccc(C)c1-c1cc2nc(n1)NS(=N)(=O)c1cccc(c1)C(=O)N1CCN(CCC(C)(C)C)CC(C1)O2 (centres unmarked) [Compound 243, 18-(3,3-Dimethylbutyl)-12-(2,6-dimethylphenyl)-8-imino-15-oxa-8λ^6-thia-1,9,11,18,22-pentaazatetracyclo[14.4.1.13,7.110,14]tricosa-3,5,7(23),10,12,14(22)-hexaene-2,8-dione] | +++ (+++ is >600%) | < 1000 | +++ (+++ is >600%) | < 1000 |  |  |  | 
2 | Cc1cccc(C)c1-c1cc2nc(n1)NS(=N)(=O)c1cccc(c1)C(=O)N1CCN(C(=O)OC(C)(C)C)CC(C1)O2 (centres unmarked) [Compound 239, tert-Butyl 12-(2,6-dimethylphenyl)-8-imino-2,8-dioxo-15-oxa-8λ^6-thia-1,9,11,18,22-pentaazatetracyclo[14.4.1.13,7.110,14]tricosa-3,5,7(23),10,12,14(22)-hexaene-18-carboxylate] | +++ (+++ is >600%) | 1000 to 3000 | +++ (+++ is >600%) | 1000 to 3000 |  |  |  | 
3 | Cc1cccc(C)c1-c1cc2nc(n1)NS(=O)(=O)c1cccc(c1)C(=O)N1CCN(CCC(C)(C)C)C[C@H](C1)O2 [Compound 1, (16R)-18-(3,3-Dimethylbutyl)-12-(2,6-dimethylphenyl)-15-oxa-8λ^6-thia-1,9,11,18,22-pentaazatetracyclo[14.4.1.13,7.110,14]tricosa-3,5,7(23),10,12,14(22)-hexaene-2,8,8-trione] |  |  |  |  | < 1000 | +++ (+++ is >60%) | < 1000 | +++ (+++ is >60%)
4 | Cc1cccc(C)c1-c1cc2nc(n1)NS(=O)(=O)c1cccc(c1)C(=O)N1Cc3ccccc3[C@H](C1)O2 (stereo in doubt) [Compound 319] |  |  |  |  | < 1000 | +++ (+++ is >60%) | < 1000 | +++ (+++ is >60%)
5 | Cc1cccc(C)c1-c1cc2nc(n1)NS(=O)(=O)c1cccc(c1)C(=O)N1C[C@H](O2)c2ccccc2[C@@H]1CC(C)C (single isomer, unassigned) [Compound 190, 12-(2,6-Dimethylphenyl)-23-(2-methylpropyl)-15-oxa-8λ^6-thia-1,9,11,25-tetraazapentacyclo[14.7.1.13,7.110,14.017,22]hexacosa-3(26),4,6,10(25),11,13,17,19,21-nonaene-2,8,8-trione] |  |  | ++ (++ is 30-60%) | < 1000 |  |  |  | 
6 | Cc1cccc(C)c1-c1cc2nc(n1)NS(=O)(=O)c1cccc(c1)C(=O)N1CCN(C)[C@H](CC(C)C)[C@H](C1)O2 [Compound 121, (16S,17R)-12-(2,6-Dimethylphenyl)-18-methyl-17-(2-methylpropyl)-15-oxa-8λ^6-thia-1,9,11,18,22-pentaazatetracyclo[14.4.1.13,7.110,14]tricosa-3(23),4,6,10(22),11,13-hexaene-2,8,8-trione] |  |  | +++ (+++ is >600%) | < 1000 |  |  |  | 
7 | Cc1cccc(C)c1-c1cc2nc(n1)NS(=O)(=O)c1cccc(c1)C(=O)N1Cc3cc(C(C)(C)C)ccc3C(C1)O2 (single isomer, unassigned) [Compound 183, 20-tert-butyl-12-(2,6-dimethylphenyl)-15-oxa-8λ^6-thia-1,9,11,25-tetraazapentacyclo[14.7.1.13,7.110,14.017,22]hexacosa-3,5,7(26),10,12,14(25),17,19,21-nonaene-2,8,8-trione] | +++ (+++ is >600%) | < 1000 | +++ (+++ is >600%) | < 1000 |  |  |  | 
8 | Cc1cccc(C)c1-c1cc2nc(n1)NS(=N)(=O)c1cccc(c1)C(=O)N1CCN(Cc3ccccc3)CC(C1)O2 (centres unmarked) [Compound 248] | ++ (++ is 30-60%) | 1000 to 3000 | +++ (+++ is >600%) | < 1000 |  |  |  | 
9 | Cc1cccc(C)c1-c1cc2nc(n1)NS(=O)(=O)c1cccc(c1)C(=O)N1CCc3cc(C(C)(C)C)ccc3[C@H]1CO2 (single isomer, unassigned) [Compound 236, 8-tert-Butyl-17-(2,6-dimethylphenyl)-14-oxa-21λ^6-thia-3,18,20,27-tetraazapentacyclo[20.3.1.115,19.03,12.06,11]heptacosa-1(26),6(11),7,9,15(27),16,18,22,24-nonaene-2,21,21-trione] |  |  | +++ (+++ is >600%) | < 1000 |  |  |  | 
10 | Cc1cccc(C)c1-c1cc2nc(n1)NS(=O)(=O)c1cccc(c1)C(=O)N1CCN(C3CC4(CCCC4)C3)[C@H](CC(C)C)[C@H](C1)O2 [Compound 119, (16S,17R)-12-(2,6-dimethylphenyl)-17-(2-methylpropyl)-18-{spiro[3.4]octan-2-yl}-15-oxa-8λ^6-thia-1,9,11,18,22-pentaazatetracyclo[14.4.1.13,7.110,14]tricosa-3(23),4,6,10(22),11,13-hexaene-2,8,8-trione] |  |  | +++ (+++ is >600%) | < 1000 |  |  |  | 
11 | Cc1cccc(C)c1-c1cc2nc(n1)NS(=O)(=O)c1cncc(c1)C(=O)N1Cc3cc(C(C)(C)C)ccc3[C@H](O2)[C@H]1CC(C)C [Compound 331] | +++ (+++ is >600%) | < 1000 | +++ (+++ is >600%) | < 1000 |  |  |  | 
12 | Cc1cccc(C)c1-c1cc2nc(n1)NS(=O)(=O)c1cccc(c1)C(=O)N1C[C@@H](CCC[C@@H]1CC(C)C)O2 (single isomer, unassigned) [Compound 180] |  |  | ++ (++ is 30-60%) | < 1000 |  |  |  | 
13 | Cc1cccc(C)c1-c1cc2nc(n1)NS(=O)(=O)c1cccc(c1)C(=O)N1CCN(CCC(C)(C)C)C[C@@H]1CO2 [Compound 298] |  |  |  |  | < 1000 | +++ (+++ is >60%) | < 1000 | +++ (+++ is >60%)
14 | Cc1cccc(C)c1-c1cc2nc(n1)NS(=O)(=O)c1cccc(c1)C(=O)N1Cc3cc(C(C)(C)C)ccc3C(O2)[C@H]1CC(C)(C)C (stereo in doubt) [Compound 188, (16S,24R)-20-tert-Butyl-12-(2,6-dimethylphenyl)-24-(2,2-dimethylpropyl)-15-oxa-8λ^6-thia-1,9,11,25-tetraazapentacyclo[14.7.1.13,7.110,14.017,22]hexacosa-3(26),4,6,10(25),11,13,17,19,21-nonaene-2,8,8-trione] | +++ (+++ is >600%) | < 1000 | +++ (+++ is >600%) | < 1000 |  |  |  | 
15 | Cc1cccc(C)c1-c1cc2nc(n1)NS(=O)(=O)c1cccc(c1)C(=O)N1CCc3cc(C(C)(C)C)ccc3[C@@H](O2)[C@H]1CC(C)C [Compound 329] |  |  | +++ (+++ is >600%) | < 1000 |  |  |  | 
16 | Cc1cccc(C)c1-c1cc2nc(n1)NS(=O)(=O)c1cccc(c1)C(=O)N1C[C@@H](CCC[C@@H]1CC(C)C)O2 (single isomer, unassigned) [Compound 179] |  |  | + (+ is <30%) |  |  |  |  | 
17 | Cc1cccc(C)c1-c1cc2nc(n1)NS(=N)(=O)c1cccc(c1)C(=O)N1CCN(CCC(C)(C)C)C[C@H](C1)O2 (single isomer, unassigned) [Compound 245, 18-(3,3-dimethylbutyl)-12-(2,6-dimethylphenyl)-8-imino-15-oxa-8λ^6-thia-1,9,11,18,22-pentaazatetracyclo[14.4.1.13,7.110,14]tricosa-3,5,7(23),10,12,14(22)-hexaene-2,8-dione] | ++ (++ is 30-60%) | < 1000 | +++ (+++ is >600%) | < 1000 |  |  |  | 

— patent US20240018161A1, “MODULATORS OF CYSTIC FIBROSIS TRANSMEMBRANE CONDUCTANCE REGULATOR” (VERTEX PHARMACEUTICALS INCORPORATED, priority 2020, published 2024)
